Assay results taken from PubChem BioAssay (NCI).
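The compound was tested at five concentrations on cells cultured in 96-well plates, with a 48-hour exposure period. The concentration for full growth arrest is given as TGI.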

Key:
Assay in all cases: DTP human tumour cell line panel, 48 h
786-0 renal = test system: 786-0 renal
A498 renal = test system: A498 renal
A549 NSCLC = test system: A549 NSCLC
ACHN renal = test system: ACHN renal
CAKI-1 renal = test system: CAKI-1 renal
CCRF-CEM leukemia = test system: CCRF-CEM leukemia
COLO 205 colon = test system: COLO 205 colon
DU-145 prostate = test system: DU-145 prostate
EKVX NSCLC = test system: EKVX NSCLC
HCC-2998 colon = test system: HCC-2998 colon
HCT-116 colon = test system: HCT-116 colon
HCT-15 colon = test system: HCT-15 colon
HL-60(TB) leukemia = test system: HL-60(TB) leukemia
HOP-62 NSCLC = test system: HOP-62 NSCLC
HOP-92 NSCLC = test system: HOP-92 NSCLC
HS 578T breast = test system: HS 578T breast
HT29 colon = test system: HT29 colon
IGROV1 ovarian = test system: IGROV1 ovarian
KM12 colon = test system: KM12 colon
LOX IMVI melanoma = test system: LOX IMVI melanoma
M14 melanoma = test system: M14 melanoma
MALME-3M melanoma = test system: MALME-3M melanoma
MCF7 breast = test system: MCF7 breast
MDA-MB-231 breast = test system: MDA-MB-231 breast
MDA-MB-435 = test system: MDA-MB-435
MOLT-4 leukemia = test system: MOLT-4 leukemia
NCI-H23 lung = test system: NCI-H23 lung
NCI-H460 lung = test system: NCI-H460 lung
NCI-H522 lung = test system: NCI-H522 lung
NCI/ADR-RES ovarian = test system: NCI/ADR-RES ovarian
OVCAR-3 ovarian = test system: OVCAR-3 ovarian
OVCAR-4 ovarian = test system: OVCAR-4 ovarian
OVCAR-5 ovarian = test system: OVCAR-5 ovarian
OVCAR-8 ovarian = test system: OVCAR-8 ovarian
PC-3 prostate = test system: PC-3 prostate
RPMI-8226 leukemia = test system: RPMI-8226 leukemia
SF-268 CNS = test system: SF-268 CNS
SF-295 CNS = test system: SF-295 CNS
SF-539 CNS = test system: SF-539 CNS
SK-MEL-2 melanoma = test system: SK-MEL-2 melanoma
SK-MEL-28 melanoma = test system: SK-MEL-28 melanoma
SK-MEL-5 melanoma = test system: SK-MEL-5 melanoma
SN12C renal = test system: SN12C renal
SNB-75 CNS = test system: SNB-75 CNS
SR leukemia = test system: SR leukemia
SW-620 colon = test system: SW-620 colon
T-47D breast = test system: T-47D breast
TK-10 renal = test system: TK-10 renal
U251 CNS = test system: U251 CNS
UACC-257 melanoma = test system: UACC-257 melanoma
UACC-62 melanoma = test system: UACC-62 melanoma
UO-31 renal = test system: UO-31 renal

Measured: TGI

CCOC(=O)C1C(c2ccc3c(c2)OCO3)c2c([nH][nH]c2=O)CC1(O)OCC (configuration not stated)
> 100 µM: all assays above
